The text below walks through data of patent US9409923B2, “Drug-fluorophore complex for specific detection of tumor cells” (KOREA INSTITUTE OF SCIENCE AND TECHNOLOGY, priority 2013, dated 2016).

The conditions of series [1]: in vivo; cited from earlier work.
Series [2] concerns HCT-116 cells (colorectal cancer cells) including luciferase. The series is described as follows: Ex vivo imaging on liver sections excised from mice. Type of series: in vivo. The settings on record: FIGS. 3a-3d. The protocol:
(§1) Mice were anesthetized with intraperitoneal injection of ketamine and xylazine, and their abdomens were cut open. HCT-116 cells (colorectal cancer cells) including luciferase were added at a concentration of 1×10^6 cells to 20 μl saline solution and injected into the left lobe of the liver to induce tumors in the mice. Four weeks after cell injection, the tumors were imaged as follows:
(§2) The compounds of Synthesis Examples 1-5 were dissolved in PBS (pH 7.4) to prepare 25 μM solutions. Mice were anesthetized intraperitoneally and their abdomens were open. 50 μl of each of the compounds was dropped using a 100 μl pipette. After 3 min, fluorescence and luminescence were observed using an imaging system (IVIS®).
Similarly to the procedure described above, ex vivo imaging was performed on liver sections excised from mice. The results are shown in FIGS. 3a to 3d (3a and 3b: fluorescence and luminescence images of the fluorophore, respectively; 3c and 3d: fluorescence and luminescence images of the drug-fluorophore complex, respectively).

For series [3] the test system is unchanged. The series is described as follows: Specific in vivo imaging of tumor cells (fluorescence vs luminescence, IVIS) in mouse liver tumors. Also on record: species or system Mice. The settings on record: 25 μM in PBS (pH 7.4), 50 μl dropped on open abdomen, observed after 3 min; FIGS. 2a-2d. The protocol: as §1, §2
FIGS. 2a to 2d are images showing fluorescence (2a) and luminescence (2b) from the fluorophore to which toremifene was not bonded, and images showing fluorescence (2c) and luminescence (2d) from the complex of the present invention in which the fluorophore was bonded to toremifene.

In the case of `CC1(C)S[C@@H]2[C@H](NC(=O)[C@H](N)c3ccccc3)C(=O)N2[C@H]1C(=O)O` [Ampicillin], the Volume of distribution in series [1] is listed as 0.38 L/kg. On to `CNCCOc1ccc(/C(=C(/CCCl)c2ccccc2)c2ccccc2)cc1` [N-desmethyltoremifene], for which the Volume of distribution in series [1] is listed as 8.3 L/kg.

Regarding `CC[N+]1=C(/C=C/C=C/C=C2/N(CCCCCC(=O)N(C)CCOc3ccc(/C(=C(/CCCl)c4ccccc4)c4ccccc4)cc3)c3ccc4c(S(=O)(=O)O)cc(S(=O)(=O)O)cc4c3C2(C)C)C(C)(C)c2c1ccc1c(S(=O)(=O)O)cc(S(=O)(=O)[O-])cc21` [Synthesis Example 3, N-desmethyl toremifene-FCR675 Carboxylic Acid Complex], the “fluorescence and luminescence in excised liver sections (ex vivo imaging)” value in series [2] is recorded as “the same results of the in vivo imaging were observed in the ex vivo imaging”. The “fluorescence in tumor-bearing liver compared with luminescence position” value in series [3] is on record as “fluorescence was observed in the section of the liver, which was the same as the position confirmed by luminescence”.
